Laboratory results published in PubChem BioAssay (NCI).
“And” between values parts separate entries of the source, which are not always exact repeats. Identical values can stand only once.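 Cells were grown in 96-well plates and exposed to each compound for 48 hours at five concentrations; endpoints were interpolated linearly between bracketing concentrations, or set to the highest concentration if not reached. At the GI50, growth is halved. The concentration for full growth arrest is given as TGI.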

Columns and labels:
Assay in all cases: inhibition of tumour cell growth, NCI panel, 48 h
EKVX NSCLC = system: EKVX NSCLC
HCT-116 colon = system: HCT-116 colon
NCI-H226 lung = system: NCI-H226 lung
OVCAR-4 ovarian = system: OVCAR-4 ovarian
OVCAR-8 ovarian = system: OVCAR-8 ovarian
T-47D breast = system: T-47D breast
UACC-257 melanoma = system: UACC-257 melanoma
UACC-62 melanoma = system: UACC-62 melanoma
UO-31 renal = system: UO-31 renal
HL-60(TB) leukemia = system: HL-60(TB) leukemia

| SMILES | TGI (EKVX NSCLC) [µM] | TGI (HCT-116 colon) | TGI (NCI-H226 lung) | TGI (OVCAR-4 ovarian) | TGI (OVCAR-8 ovarian) [µM] | TGI (T-47D breast) [µM] | TGI (UACC-257 melanoma) | TGI (UACC-62 melanoma) [µM] | TGI (UO-31 renal) | TGI (HL-60(TB) leukemia) | GI50 (EKVX NSCLC) | GI50 (HCT-116 colon) | GI50 (HL-60(TB) leukemia) | GI50 (OVCAR-4 ovarian) [µM] | GI50 (UACC-62 melanoma) [µM] | GI50 (OVCAR-8 ovarian) [µM] | GI50 (T-47D breast) | GI50 (UACC-257 melanoma) [µM] | GI50 (UO-31 renal) [µM] |
| --- | --- | --- | --- | --- | --- | --- | --- | --- | --- | --- | --- | --- | --- | --- | --- | --- | --- | --- | --- |
| Cc1ccc2c3c1[C@@H]1O[C@@H]1c1cccc(c1-3)[C@@H]1O[C@H]21 | 32.3 | 27.7 µM | 84.7 µM | 33.3 µM | 40.5 | 20.9 | 33 µM | 40.2 | 27.7 µM |  |  |  |  |  |  |  |  |  |  |
| O=c1[nH]c2cc([N+](=O)[O-])c(N/N=C/c3ccc(Cl)cc3Cl)c([N+](=O)[O-])c2[nH]1 | > 100 | > 100 µM | > 100 µM | 94.6 µM | > 100 | > 100 | > 100 µM | > 100 | > 100 µM | > 100 µM |  |  |  |  |  |  |  |  |  |
| O=c1[nH]c(=O)n(CCOc2ccc(Cl)cc2)cc1Nc1ccccc1 | > 100 | > 100 µM |  | > 100 µM |  |  | > 100 µM | > 100 | > 100 µM | > 100 µM |  |  |  |  |  |  |  |  |  |
| C=C1CC2C3C=C(C)C4=CC(=O)CC[C@]4(C)C3CC[C@]2(C)[C@@]1(OC(C)=O)C(C)=O (some centres not stated) | > 100 | > 100 µM |  | > 100 µM |  |  |  | > 100 |  | 5.53 µM | 2.1 µM | 3.38 µM | 2.55 µM | 2.91 | 3.38 |  |  |  |  |
| COc1ccc(N=Cc2ccc(N(CCC#N)S(=O)(=O)c3ccccc3)cc2C)cc1 | > 100 | > 100 µM | > 100 µM | > 100 µM | > 100 |  | > 100 µM | > 100 | > 100 µM | > 100 µM |  |  |  |  |  |  |  |  |  |
| NC(=O)CCSC(CC(=O)c1ccc(Cl)cc1)c1ccc(Cl)cc1 (configuration not stated) | 93.7 | 70.4 µM | > 100 µM | 45.2 µM | 32.3 | 57.3 | > 100 µM | 56 | > 100 µM | 25.6 µM |  |  |  |  |  |  |  |  |  |
| CCOC(=O)C12CC(C)=C(C)CC1CCCc1ccccc12 (configuration not stated) | 49.5 | 34.3 µM | 56 µM | > 100 µM | > 100 | 55.5 | 46.2 µM | > 100 | > 100 µM | 29.5 µM |  |  |  |  |  |  |  |  |  |
| O=CN1CCC23CC(O)CCC2C1Cc1cc(Oc2nnnn2-c2ccccc2)cc(O)c13 (configuration not stated) | > 100 | > 100 µM | > 100 µM | > 100 µM | > 100 | > 100 | > 100 µM | > 100 | > 100 µM | > 100 µM |  |  |  |  |  |  |  |  |  |
| C[C@H]1CCC/C=C/[C@@H]2C[C@H](O)C[C@H]2[C@H](O)/C=C/C(=O)O1 |  | 0.0478 µM and 0.0573 µM and 0.152 µM | 0.0954 µM and 0.148 µM and 0.0478 µM | 5.62 µM and > 49.1 µM |  |  |  |  | 0.0655 µM and 0.492 µM | 1.82 µM and > 15.2 µM | < 0.0164 µM and 0.0544 µM and 0.0447 µM | 0.0115 µM and 0.056 µM | 0.0281 µM and 0.167 µM and 0.115 µM | 0.0312 |  | 0.043 | 0.0809 µM and 0.619 µM | 0.0132 | 0.0301 |
| CCC1CCC2c3c([nH]c4ccc(C)cc34)C3C(=O)N(N(C)C)C(=O)C3C2C1 (configuration not stated) | > 100 | 52.9 µM | > 100 µM | > 100 µM | > 100 | 41.2 | > 100 µM | > 100 | > 100 µM | > 46.8 µM |  |  |  |  |  |  |  |  |  |
| CCOC(=O)/C(=C\NC(C)(C)CO)c1nc2ccccc2[nH]1 | > 100 | > 100 µM |  | > 100 µM | > 100 |  | > 100 µM | > 100 | 11.7 µM | > 100 µM |  |  |  |  |  |  |  |  |  |
| CCCC[C@H]1C(=O)O[C@H](C)[C@H](NC(=O)c2cccc(NC=O)c2OC)C(=O)O[C@@H](C)[C@@H]1OC(=O)CC(C)C (tested in a mixture with another compound) | 31.3 | 28.4 µM | 35 µM | 21.1 µM | 34.7 | 44.5 | 38.6 µM | 18.5 | 41.4 µM | 35.8 µM |  |  |  |  |  |  |  |  |  |
| O=c1[nH]c(=O)n(CCOCP(=O)(O)O)nc1Br | > 100 |  | > 100 µM |  | > 100 | > 100 |  |  | > 100 µM | > 100 µM |  |  |  |  |  |  |  |  |  |
| N=C(N)c1ccc(N=Nc2c(O)ccc3cc4c(N=Nc5ccc(C(=N)N)cc5)c(O)ccc4cc23)cc1 | > 100 | > 100 µM | > 100 µM | > 100 µM | > 100 | > 100 | > 100 µM | > 100 | > 100 µM | 84.6 µM |  |  |  |  |  |  |  |  |  |
| C/C(=C\C(=N\NC(=N)N)c1ccccc1)c1ccccc1 |  | 1.1 µM | 13 µM | 3.16 µM | 4.83 | 2.81 |  | 3.23 |  |  |  |  |  |  |  |  |  |  |  |
| Cc1cn(Cc2cn(CC3OC(n4cc(C)c(=O)[nH]c4=O)CC3O)nn2)c(=O)[nH]c1=O (configuration not stated) | > 100 | > 100 µM | > 100 µM | > 100 µM | > 100 | > 100 | > 100 µM | > 100 | > 100 µM |  |  |  |  |  |  |  |  |  |  |
| COc1cccc(NC(=O)CC(=O)NN2C(=O)/C(=C/c3ccc(N(CCC#N)CCC#N)cc3)N=C2c2cc([N+](=O)[O-])ccc2Cl)c1 | > 100 | > 100 µM | 30.1 µM | > 100 µM | > 100 |  |  | > 100 | > 100 µM |  |  |  |  |  |  |  |  |  |  |
| C=C1c2nc3ccccc3n2C=C(c2ccc(Cl)cc2)N1c1ccc(OCCN2CCCCC2)cc1 | > 100 | > 45 µM | > 100 µM | > 45 µM | > 45 | > 100 | 37.4 µM and > 100 µM | > 100 | > 45 µM | 45 µM |  |  |  |  | > 100 |  | > 100 µM | > 100 |  |
| N#Cc1c(-c2ccc(Cl)cc2)c2c([nH]c1=O)-c1cc([N+](=O)[O-])ccc1CCC2 | 51.2 | 31.9 µM | 44.2 µM | > 100 µM | 50.8 | > 100 | 57 µM | 32.4 | 32.5 µM | 65.1 µM |  |  |  |  |  |  |  |  |  |
| O=C1[C@@H](O)[C@@H]2CCCC[C@@]23CCCN13 | > 100 | > 100 µM | > 100 µM | > 100 µM | > 100 | > 100 | > 100 µM | > 100 | > 100 µM | > 100 µM |  |  |  |  |  |  |  |  |  |
